In paper PMC11198769, “Enhancement of transcription efficiency by TAR-Tat system increases the functional expression of human olfactory receptors” (PLOS ONE, 2024):

Tests used:
Assay in all cases: Comprehensive analysis (screening) of hORs against n-hexanal
Assay type in all cases: cell-based
OR2B3 = target: T1, OR2B3 (Homo sapiens, UniProt O76000); conditions: OR2B3, 500 μM n-hexanal, with the TAR-Tat system (hOR/pHEK), n = 1
T1 construct: Lucy tag (N); FLAG (N); Rho tag (N); expressed in transfected cells; host or cells: Flp-In T-REx-293 cells stably expressing RTP1S, Gαolf and Ric8-b
T1 sequence (O76000 1-313): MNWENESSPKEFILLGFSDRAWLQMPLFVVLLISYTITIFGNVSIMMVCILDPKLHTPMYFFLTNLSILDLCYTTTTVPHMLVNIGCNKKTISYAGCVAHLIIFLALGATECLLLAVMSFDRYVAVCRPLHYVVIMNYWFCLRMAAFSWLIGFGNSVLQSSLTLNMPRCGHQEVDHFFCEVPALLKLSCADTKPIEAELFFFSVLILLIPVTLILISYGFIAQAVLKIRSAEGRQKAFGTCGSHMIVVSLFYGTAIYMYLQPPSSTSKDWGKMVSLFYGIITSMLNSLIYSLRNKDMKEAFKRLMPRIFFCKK
Description: (§1) Transfection was performed as described in the “hOR assay,” but 12.5 ng of 379 hOR plasmids (hOR/pBApo and hOR/pHEK) was transfected with the 12.5 ng pGlosensor^TM-22F cAMP biosensor plasmid (Promega) in 384 plates per well. After loading the GloSensor cAMP substrate and preincubation, the assay buffer was added (30 μL/well). After 10 min of equilibration, luminescence was measured (L0). Then, 50 mM n-hexanal, which was diluted with 10% DMSO/assay buffer, was added (4.7 μL/well). After 9 min, luminescence was measured (L9min). All the L9min values were subtracted by the L0 value (ΔL).

OR2M3 = target: T2, OR2M3 (Homo sapiens, UniProt Q8NG83); conditions: OR2M3, 500 μM n-hexanal, with the TAR-Tat system (hOR/pHEK), n = 1
T2 construct: Lucy tag (N); expressed in transfected cells; host or cells: Flp-In T-REx-293 cells stably expressing RTP1S, Gαolf and Ric8-b
T2 sequence (Q8NG83 1-312): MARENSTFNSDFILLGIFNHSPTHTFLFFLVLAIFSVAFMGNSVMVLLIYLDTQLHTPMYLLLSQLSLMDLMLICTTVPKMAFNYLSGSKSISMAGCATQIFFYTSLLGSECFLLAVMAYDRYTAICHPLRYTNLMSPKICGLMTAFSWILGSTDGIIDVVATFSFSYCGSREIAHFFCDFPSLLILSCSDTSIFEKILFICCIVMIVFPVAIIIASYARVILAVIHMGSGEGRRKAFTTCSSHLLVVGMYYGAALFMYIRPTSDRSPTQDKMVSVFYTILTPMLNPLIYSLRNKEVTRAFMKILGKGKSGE
Description: as §1

OR52N4 = target: T3, OR52N4 (Homo sapiens, UniProt Q8NGI2); conditions: OR52N4, 500 μM n-hexanal, with the TAR-Tat system (hOR/pHEK), n = 1
T3 construct: Lucy tag (N); expressed in transfected cells; host or cells: Flp-In T-REx-293 cells stably expressing RTP1S, Gαolf and Ric8-b
T3 sequence (Q8NGI2 1-321): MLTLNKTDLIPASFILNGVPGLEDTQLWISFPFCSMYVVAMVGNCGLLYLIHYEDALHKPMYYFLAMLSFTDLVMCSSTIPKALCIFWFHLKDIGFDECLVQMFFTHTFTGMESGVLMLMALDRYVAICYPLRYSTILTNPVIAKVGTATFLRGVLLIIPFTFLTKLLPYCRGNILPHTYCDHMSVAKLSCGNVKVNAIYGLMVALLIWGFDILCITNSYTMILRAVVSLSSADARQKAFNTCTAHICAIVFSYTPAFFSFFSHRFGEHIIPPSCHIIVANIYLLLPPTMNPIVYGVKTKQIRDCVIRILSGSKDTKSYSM
Description: as §1

OR56B1 = target: T4, OR56B1 (Homo sapiens, UniProt Q8NGI3); conditions: OR56B1, 500 μM n-hexanal, with the TAR-Tat system (hOR/pHEK), n = 1
T4 construct: Lucy tag (N); expressed in transfected cells; host or cells: Flp-In T-REx-293 cells stably expressing RTP1S, Gαolf and Ric8-b
T4 sequence (Q8NGI3 1-324): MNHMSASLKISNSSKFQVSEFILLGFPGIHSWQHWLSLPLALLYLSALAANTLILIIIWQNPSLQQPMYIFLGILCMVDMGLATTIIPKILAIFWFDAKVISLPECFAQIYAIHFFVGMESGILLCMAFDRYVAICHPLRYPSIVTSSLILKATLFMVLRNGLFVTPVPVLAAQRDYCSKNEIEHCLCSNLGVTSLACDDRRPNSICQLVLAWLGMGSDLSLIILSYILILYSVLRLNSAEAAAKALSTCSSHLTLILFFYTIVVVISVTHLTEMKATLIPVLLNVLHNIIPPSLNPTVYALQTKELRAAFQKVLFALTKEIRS
Description: as §1

OR5P3 = target: T5, OR5P3 (Homo sapiens, UniProt Q8WZ94); conditions: OR5P3, 500 μM n-hexanal, n = 1
T5 construct: Lucy tag (N); FLAG (N); Rho tag (N); expressed in transfected cells; host or cells: Flp-In T-REx-293 cells stably expressing RTP1S, Gαolf and Ric8-b
T5 sequence (Q8WZ94 1-311): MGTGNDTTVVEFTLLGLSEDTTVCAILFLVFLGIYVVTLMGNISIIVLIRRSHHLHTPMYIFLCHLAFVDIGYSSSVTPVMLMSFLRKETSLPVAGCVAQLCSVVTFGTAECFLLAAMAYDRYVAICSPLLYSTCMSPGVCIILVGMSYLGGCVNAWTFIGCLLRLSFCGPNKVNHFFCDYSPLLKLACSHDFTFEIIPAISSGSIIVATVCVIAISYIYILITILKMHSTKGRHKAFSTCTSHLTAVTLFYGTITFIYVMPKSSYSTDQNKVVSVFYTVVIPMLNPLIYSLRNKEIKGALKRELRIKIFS
Description: as §1

OR8B3 = target: T6, OR8B3 (Homo sapiens, UniProt Q8NGG8); conditions: OR8B3, 500 μM n-hexanal, with the TAR-Tat system (hOR/pHEK), n = 1
T6 construct: Lucy tag (N); FLAG (N); Rho tag (N); expressed in transfected cells; host or cells: Flp-In T-REx-293 cells stably expressing RTP1S, Gαolf and Ric8-b
T6 sequence (Q8NGG8 1-313): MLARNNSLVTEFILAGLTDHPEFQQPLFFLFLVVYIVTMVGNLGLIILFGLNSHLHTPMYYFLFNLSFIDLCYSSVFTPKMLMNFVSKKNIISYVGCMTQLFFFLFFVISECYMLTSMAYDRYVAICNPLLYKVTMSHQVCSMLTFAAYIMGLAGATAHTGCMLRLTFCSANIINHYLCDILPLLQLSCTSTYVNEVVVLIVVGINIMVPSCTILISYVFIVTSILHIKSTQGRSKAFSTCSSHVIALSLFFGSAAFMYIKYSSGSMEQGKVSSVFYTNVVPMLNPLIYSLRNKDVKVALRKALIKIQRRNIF
Description: as §1

Compound: CCCCCC=O [n-hexanal]
- response value (ΔL) (OR2B3): > 500
- response value (ΔL) (OR2M3): −620
- response value (ΔL) (OR52N4): > 500
- response value (ΔL) (OR56B1): > 500
- response value (ΔL) (OR5P3; with the TAR-Tat system (hOR/pHEK)): 2931
- response value (ΔL) (OR5P3; without the TAR-Tat system (control plasmid)): 740
- response value (ΔL) (OR8B3): > 500
